According to US7776833B2, “Use of cyclic bioisosters of purine system derivatives for treating diseases produced by disorders of niterergic and dopaminergic systems” (priority 2003, dated 2010):

Columns and labels:
Format in all cases: in vivo, Wistar rats
[1] = system: physical dependence from morphine (morphine abstinence); assay: Morphine abstinence syndrome, signs scored in the open field test
Procedure: Thirty six hours after the last injection selected motor and autonomice parameters which are specific symptoms of abstinence were monitored in the <<open field>> test (an arena with a diameter of 120 cm and wall height of 40 cm).
Med., 2002, V.29, p.1-6.). The observable signs were recorded quantitatively (if it was possible) with further assignment of an index to each sign (depending on the specific feature of the sign) and calculation of the sum of scores. The expression of the abstinence syndrome was presented as a sum of scores. The results were processed using nonparametric statistical analysis based on the Mann-Whitney test.

[2] = system: nitric oxide synthase (NOS); assay: Nitric oxide synthase activity in brain regions, radiometric [3H]L-citrulline method; details: 3 x 20 mg/kg intramuscularly
Procedure: (§1) After the above experiments the rat brains were isolated and immediately placed in the ice cold 0.9% solution of sodium chloride. After cooling the following structures were isolated from the brain: cerebral cortex, hippocampus, mesencephalon, striatum, brainstem, hypothalamus and cerebellum. The isolated tissue was homogenized in a Potter S homogenizer for 3 minutes at 1500 rpm in 4-5 volumes of 20 mM HEPES (pH 7.5) at 4° C. The supernatants were centrifuged for 30 minutes at 11000 g at 4° C., and aliquots of the obtained supernatants were taken for determining nitrates and nitrites (NOx-), while the remaining part was mixed with cooled 20 mM of HEPES (pH 7.5), containing 0.5 mM ethylenediamine tetraacetate (EDTA), 1 mM dithiotreitol (DDT), 1 mM phenylmethylsulfonyl fluoride (PMSF), aprotinine and leupeptine at a concentration of 5 μg/ml, this mixture being used for determining nitric oxide synthase (NOS) activity.
The activity of nitric oxide synthase (NOS) was determined using a radiometric method by the rate of L-citrulline accumulation in a reaction of [^3H] L-arginine oxidation catalyzed by NOS (Bredt M., Snyder S. Nitric oxide mediates glutamate-linked enhancement of cGMP levels in the cerebellum. Proc. Natl. Acad. Sci., USA, 1989, V.86, p.9030-9033). The formation of L-citrulline in this reaction is equivalent to a biosynthesis of nitric oxide.
The reaction was initiated by adding brain supernatant in the reaction medium containing 2 μCi/ml of [3H] L-arginine, 20 mM HEPES (pH 7.4), 0.2 mM CaCl2, 5 μM FAD, 5 μM FMN, 1 mM NADPH, 50 μM of BH4. After 15-60 minutes of incubation at 37° C. a suspension of Dowex 50WX8-400 (Na^+-form), which sorbs unreacted [^3H]L-arginine, but not [^3H] L-citrulline was added to the samples. After the sorption the radioactivity of the samples was determined on a scintillation counter SL-4000 (“Intertechnique”). The activity of Ca^2+-dependent and Ca^2+-independent NOS isoforms was determined by the difference of rates of [^3H]L-citrulline formation in three parallel samples containing 2 mM EDTA (Ca^2+ chelator), 2 mM EDTA+2 mM L-NAME (inhibitor all NOS isoforms) or without inhibitors. The enzyme activity was expressed in rnol [^3H]L-citrulline acumulated per 1 minute on 1 mg of supernatant protein.
(§2) The content of protein in the samples was determined by the Bradford method (Bradford M. M. A rapid and sensitive method for quantitation of microgram quantities of protein using the principle of protein binding . Anal. Biochem., 1976, V. 72, p. 248-254) using Coumassi dye. The statistical analysis was performed using methods appropriate for respective experiments. The data are expressed as mean±standard error of mean.

[3] = system: nitrites and nitrates (NOx-); assay: Measurement of nitrates/nitrites (NOx-) in brain regions after the morphine abstinence experiment
Procedure: as §1
To estimate the intensity of metabolism of nitric oxide in rats, quantitative determination of stable metabolites of nitrogen oxide-nitrites and nitrates (NOx-) was performed using a fluorometric method by fluorescence of naphthotriazole, a product of reaction of 2,3- diaminonaphthalene (DAN) and nitrite in an acidic medium (Misko T. R., Schilling R. J., Salvemini D. et al. A fluorometric assay for the measurement of nitrite in biological samples. Anal. Biochem., 1993, V. 214, p.11-16) with modifications (Lei B., Adachi N., Nagaro T., Arai T. Measurement of total nitric oxide metabolite (NO (x) (-)) levels in vivo. Brain. Res. Protoc., 1999, V. 4, p. 415-419).
The supernatants of brain deproteinized at 100° C. were placed in a nitrite recovery system containing 0.125 unit/ml of nitrate reductase, 25 μM NADPH and 25 μM FAD prepared in 20 mM Tris-HCl buffer pH 7.6 and incubated for 30 minutes at 37° C. For oxidation of NADPH a lactate dehydrogenase (LDH)/pyruvate system was used. Then 316.0 μM DAN solution in 0.62 M HCl was added and the mixture was incubated for 10 minutes in dark. For stabilization of fluorescence of the formed naphthotriazole, 280 mM NaOH was added. The fluorescence intensity was measured using spectrofluorometer Hitachi F-3000 at a wavelength of excitation 365 nm and emission 405 nm. To calculate the concentration of NOx- in the brain a standard solution of sodium nitrate was used. The concentration of NOx- was expressed in nmol/mg of protein.
as §2

[4] = Morphine − (morphine + compound), compound 3 x 20 mg/kg intramuscularly, one value for the three compounds
[5] = Groups Nos. 3-14, compound without morphine, one value for all 12 compounds
[6] = Morphine + compound, one value for the three compounds
[7] = Groups Nos. 3-14, compound without morphine, 3 x 20 mg/kg intramuscularly, one value for all 12 compounds
[8] = Morphine + compound, 3 x 20 mg/kg intramuscularly, one value for the three compounds
[9] = Control − morphine, open field, 36 h after last morphine injection

## O=c1[nH][nH]c(=O)c2ncncc12.[Li] [Compound 35, lithium salt of pyrimido[4,5-d]-6H-pyridazine-5,8-dione]
[1]; [4]
  Authentic differences (ξ-square criterion) in appearance of signs of abstinence: <<Wet dog>> shakes: 1.0000
  Authentic differences (ξ-square criterion) in appearance of signs of abstinence: Aggression: 0.8456
  Authentic differences (ξ-square criterion) in appearance of signs of abstinence: Convulsions: 0.5578
  Authentic differences (ξ-square criterion) in appearance of signs of abstinence: Diarrhea: 0.0001
  Authentic differences (ξ-square criterion) in appearance of signs of abstinence: Dyspnea: 0.0685
  Authentic differences (ξ-square criterion) in appearance of signs of abstinence: Forelimb jogging: 0.9321
  Authentic differences (ξ-square criterion) in appearance of signs of abstinence: Grit with teeth: 0.7003
  Authentic differences (ξ-square criterion) in appearance of signs of abstinence: Mastication: 0.1888
  Authentic differences (ξ-square criterion) in appearance of signs of abstinence: Piloerection: 0.2345
  Authentic differences (ξ-square criterion) in appearance of signs of abstinence: Ptosis: 0.0232
  Authentic differences (ξ-square criterion) in appearance of signs of abstinence: Rhinorrhea: 0.2935
  Authentic differences (ξ-square criterion) in appearance of signs of abstinence: Squeak when touched: 0.2035
[2]; [5]
  Activity of NOS, hippocampus: 3.09 ± 0.16 nmol/min/mg of protein
  Activity of NOS, hypothalamus: 5.45 ± 0.24 nmol/min/mg of protein
  Activity of NOS, midbrain: 2.60 ± 0.29 nmol/min/mg of protein
  Activity of NOS, striatum: 1.26 ± 0.08 nmol/min/mg of protein
[2]; [6]
  Activity of NOS, hippocampus: 2.65 ± 0.15 nmol/min/mg of protein
  Activity of NOS, hypothalamus: 5.56 ± 0.34 nmol/min/mg of protein
  Activity of NOS, midbrain: 1.89 ± 0.27 nmol/min/mg of protein
  Activity of NOS, striatum: 1.34 ± 0.09 nmol/min/mg of protein
[3]; [7]
  Nitrites, brainstem: 6.31 ± 0.58 nmol/mg of protein
  Nitrites, cerebellum: 6.66 ± 0.63 nmol/mg of protein
  Nitrites, cerebral cortex: 4.31 ± 0.37 nmol/mg of protein
  Nitrites, hippocampus: 6.47 ± 0.72 nmol/mg of protein
  Nitrites, hypothalamus: 6.77 ± 0.83 nmol/mg of protein
  Nitrites, midbrain: 6.65 ± 0.70 nmol/mg of protein
  Nitrites, striatum: 6.11 ± 0.29 nmol/mg of protein
[3]; [8]
  Nitrites, brainstem: 6.87 ± 0.81 nmol/mg of protein
  Nitrites, cerebellum: 5.93 ± 0.54 nmol/mg of protein
  Nitrites, cerebral cortex: 4.84 ± 0.31 nmol/mg of protein
  Nitrites, hippocampus: 5.31 ± 0.33 nmol/mg of protein
  Nitrites, hypothalamus: 6.77 ± 0.46 nmol/mg of protein
  Nitrites, midbrain: 5.95 ± 0.52 nmol/mg of protein
  Nitrites, striatum: 3.57 ± 0.42 nmol/mg of protein

## CN1CC[C@]23c4c5ccc(O)c4O[C@H]2[C@@H](O)C=C[C@H]3[C@H]1C5.Cl [morphine, morphine hydrochloride, reference compound]
[1]; [9]
  Authentic differences (ξ-square criterion) in appearance of signs of abstinence: <<Wet dog>> shakes: 0.0002
  Authentic differences (ξ-square criterion) in appearance of signs of abstinence: Aggression: 0.5770
  Authentic differences (ξ-square criterion) in appearance of signs of abstinence: Convulsions: 0.0507
  Authentic differences (ξ-square criterion) in appearance of signs of abstinence: Diarrhea: 0.0075
  Authentic differences (ξ-square criterion) in appearance of signs of abstinence: Dyspnea: 0.0053
  Authentic differences (ξ-square criterion) in appearance of signs of abstinence: Forelimb jogging: 0.0180
  Authentic differences (ξ-square criterion) in appearance of signs of abstinence: Grit with teeth: 0.1266
  Authentic differences (ξ-square criterion) in appearance of signs of abstinence: Piloerection: 0.5770
  Authentic differences (ξ-square criterion) in appearance of signs of abstinence: Ptosis: 0.0053
  Authentic differences (ξ-square criterion) in appearance of signs of abstinence: Rhinorrhea: 0.2994
  Authentic differences (ξ-square criterion) in appearance of signs of abstinence: Squeak when touched: 0.0053
[3]; Group No. 2 (morphine)
  Nitrites, cerebellum: 6.07 ± 0.42 nmol/mg of protein
  Nitrites, hippocampus: 6.45 ± 0.69 nmol/mg of protein
  Nitrites, hypothalamus: 4.62 ± 0.71 nmol/mg of protein

## O=c1[nH]n([C@@H]2O[C@H](CO)[C@@H](O)[C@H]2O)c(=O)c2nc(Br)ncc12.[Na] [Compound 32, sodium salt of 2-bromine-7-(β-D-ribofuranosile)pyrimido[4,5-d]-6H-pyridazine-5,8-dione]
[1]; [4]
  Authentic differences (ξ-square criterion) in appearance of signs of abstinence: <<Wet dog>> shakes: 1.0000
  Authentic differences (ξ-square criterion) in appearance of signs of abstinence: Aggression: 0.8456
  Authentic differences (ξ-square criterion) in appearance of signs of abstinence: Convulsions: 0.5578
  Authentic differences (ξ-square criterion) in appearance of signs of abstinence: Diarrhea: 0.0001
  Authentic differences (ξ-square criterion) in appearance of signs of abstinence: Dyspnea: 0.0685
  Authentic differences (ξ-square criterion) in appearance of signs of abstinence: Forelimb jogging: 0.9321
  Authentic differences (ξ-square criterion) in appearance of signs of abstinence: Grit with teeth: 0.7003
  Authentic differences (ξ-square criterion) in appearance of signs of abstinence: Mastication: 0.1888
  Authentic differences (ξ-square criterion) in appearance of signs of abstinence: Piloerection: 0.2345
  Authentic differences (ξ-square criterion) in appearance of signs of abstinence: Ptosis: 0.0232
  Authentic differences (ξ-square criterion) in appearance of signs of abstinence: Rhinorrhea: 0.2935
  Authentic differences (ξ-square criterion) in appearance of signs of abstinence: Squeak when touched: 0.2035
[2]; [5]
  Activity of NOS, hippocampus: 3.09 ± 0.16 nmol/min/mg of protein
  Activity of NOS, hypothalamus: 5.45 ± 0.24 nmol/min/mg of protein
  Activity of NOS, midbrain: 2.60 ± 0.29 nmol/min/mg of protein
  Activity of NOS, striatum: 1.26 ± 0.08 nmol/min/mg of protein
[2]; [6]
  Activity of NOS, hippocampus: 2.65 ± 0.15 nmol/min/mg of protein
  Activity of NOS, hypothalamus: 5.56 ± 0.34 nmol/min/mg of protein
  Activity of NOS, midbrain: 1.89 ± 0.27 nmol/min/mg of protein
  Activity of NOS, striatum: 1.34 ± 0.09 nmol/min/mg of protein
[3]; [7]
  Nitrites, brainstem: 6.31 ± 0.58 nmol/mg of protein
  Nitrites, cerebellum: 6.66 ± 0.63 nmol/mg of protein
  Nitrites, cerebral cortex: 4.31 ± 0.37 nmol/mg of protein
  Nitrites, hippocampus: 6.47 ± 0.72 nmol/mg of protein
  Nitrites, hypothalamus: 6.77 ± 0.83 nmol/mg of protein
  Nitrites, midbrain: 6.65 ± 0.70 nmol/mg of protein
  Nitrites, striatum: 6.11 ± 0.29 nmol/mg of protein
[3]; [8]
  Nitrites, brainstem: 6.87 ± 0.81 nmol/mg of protein
  Nitrites, cerebellum: 5.93 ± 0.54 nmol/mg of protein
  Nitrites, cerebral cortex: 4.84 ± 0.31 nmol/mg of protein
  Nitrites, hippocampus: 5.31 ± 0.33 nmol/mg of protein
  Nitrites, hypothalamus: 6.77 ± 0.46 nmol/mg of protein
  Nitrites, midbrain: 5.95 ± 0.52 nmol/mg of protein
  Nitrites, striatum: 3.57 ± 0.42 nmol/mg of protein
